Three compounds from US7455840B2, “Compositions and methods to reduce mutagenesis” (priority 2003, dated 2008) can be followed below.

For assay [1], the system named is LexA strain (ATCC 25922 lexA(S119A)). The assay can be described thus: in vitro susceptibility testing (NCCLS method), rifampin MIC. Format: cell-based, E. coli. The settings on record: Escherichia coli. On the procedure: (§1) In vitro susceptibility testing of strains was preformed using the NCCLS method. (See National Committee for Clinical Laboratory Standards. 1997. Reference method for broth dilution anti-fungal susceptibility testing of yeasts. Approved standard M27-A. National Committee for Clinical Laboratory Standards, Wayne, Pa.) Eight colonies from each group at the 72 hr time point from MHA plate with and without rifampin were obtained. Minimum inhibitory concentrations (“MICs”) were performed in duplicate on three occasions on each colony. […] Minimum inhibitory concentrations of both the LexA and LacZ strains pre-treatment=8.0 mg/L.

The subject of assay [2] is LacZ strain (ATCC 25922-ΔlacZ). The assay is described as above. To be noted: Escherichia coli. Format: cell-based, E. coli. On the procedure: as §1
Assay [3] has as its system E. coli ATCC 25922-ΔlacZ. The assay can be described thus: neutropenic Swiss ICR mouse thigh infection treated with rifampin, CFU determination. The settings on record: lacZ Strain; rifampin 100 mg/kg subcutaneous every 12 hours; 96 h.
Procedure: Two hours after infection the mice received rifampin at 100 mg/kg (subcutaneous) every 12 hours. The mice continued the rifampin regimen until they were sacrificed. Two mice were sacrificed at 0, 24, 48, 72 and 96 hours. The thighs were removed, homogenized, 1:10 serial diluted, and plated for CFU determination. Homogenates were plated on MH agar (NHA) to quantify the entire population of organisms and on rifampin containing MHA plates (16 mg/L) to quantify the population of organisms with a rifampin resistance phenotype.
For assay [4], the system named is E. coli ATCC 25922-ΔlacZ. The assay can be described thus: in vitro susceptibility testing with rifampin, Example 8. The settings on record: Escherichia coli. Type of assay: cell-based. The procedure:
(§2) In vitro susceptibility testing was performed with rifampin on the parent strains and on cells isolated from the agar plates after therapy.

Assay [5] relates to ATCC 25922 lexA(S119A). The assay can be described thus: neutropenic CD1 mouse thigh infection treated with rifampin, colonies on rifampin plates. To be noted: rifampin 100 mg/kg twice daily subcutaneous; plates 128 mg/L; over the 72 h study period.
Procedure: (§3) Two hours after infection mice were treated with rifampin 100 mg/kg twice daily via the subcutaneous route. Groups of two mice were sacrificed at the started of therapy (zero hour) and every 24 h for a period of 72 h. After euthanasia, thigh were removed, homogenized, diluted, and plated for CFU enumeration (lower limit of detection is 2 log cfu/thigh). Homogenate dilutions were plated on MHA with and without rifampin (128 mg/L).
For assay [6], the system named is E. coli MG1655. The assay can be described thus: pre-exposure to rifampicin, then plating on 35 ng/mL ciprofloxacin. Type of assay: cell-based.
For assay [7], the system named is ATCC 25922 lexA(S119A). The assay can be described thus: in vitro susceptibility testing with rifampin, Example 8. Format: cell-based, E. coli. The procedure: as §2
For assay [8], the system named is E. coli ATCC 25922-ΔlacZ. The assay can be described thus: neutropenic CD1 mouse thigh infection treated with rifampin, colonies on rifampin plates. The settings on record: rifampin 100 mg/kg twice daily subcutaneous; plates 128 mg/L; after 72 h of therapy.
Procedure: as §3
The target in assay [9] is LexA (Escherichia coli, UniProt P0A7C2). To be noted: peptide at 1.5 mM; LexA 5 uM, 0.25 uM activated RecA, 37 degrees, 30 min (FIG. 20).
Procedure: Cleavage of LexA was initiated by the addition of 0.25 uM activated RecA. The mixture was incubated at 37 degrees for 30 min. Aliquots were removed and quenched in aqueous acetonitrile containing 0.1% TFA.
The cleavage of LexA protein was monitored by HPLC using a gradient of 30 to 90% buffer B (9.9% H2O, 90% CH3CN, 0.1% TFA) in buffer A(98% H2O, 1.9% CH3CN, 0.1% TFA) and recording absorbance at 214 nm. […] Error bars represent one standard deviation of three separate experiments.
Assay [10] has as its system E. coli K-12 (MG1655) isogenic loss of function strains. The assay can be described thus: ciprofloxacin MIC of isogenic strains (Table 5). To be noted: Escherichia coli.
Assay [11] has as its system ATCC 25922-lexA(S119A). The assay can be described thus: mouse thigh infection treated with ciprofloxacin, resistant colonies. To be noted: mice given approximately cytostatic ciprofloxacin dose.
Assay [12] relates to ATCC 25922-lexA(S119A)(gyrA(S83L)). The assay can be described thus: second step mutation rate to 650 ng/ml ciprofloxacin resistance. Format: cell-based, E. coli. The settings on record: lexA(S119A) strain already resistant to 35 ng/ml, evolving resistance to 650 ng/ml ciprofloxacin.
Source text: (§4) Error bars represent standard deviation from two independent rate determinations.
Assay [13] relates to ATCC 25922-ΔlacZ(gyrA(S83L)). The assay is described as above. Format: cell-based, E. coli. To be noted: wild-type strain already resistant to 35 ng/ml, evolving resistance to 650 ng/ml ciprofloxacin.
Source text: as §4
Setting [14] is: ATCC25922, colonies from the 72 hr time point of rifampin therapy in mice, read-out: Minimum Inhibitory Concentrations, Post.
[15] abbreviates: ATCC25922, pre-treatment, read-out: Minimum Inhibitory Concentrations, Pre.

Values after ≈ are worked out from the molar mass of the structure shown. Read-outs that look alike come from different tables or passages of the source.

Sequence of LexA (P0A7C2 whole entry): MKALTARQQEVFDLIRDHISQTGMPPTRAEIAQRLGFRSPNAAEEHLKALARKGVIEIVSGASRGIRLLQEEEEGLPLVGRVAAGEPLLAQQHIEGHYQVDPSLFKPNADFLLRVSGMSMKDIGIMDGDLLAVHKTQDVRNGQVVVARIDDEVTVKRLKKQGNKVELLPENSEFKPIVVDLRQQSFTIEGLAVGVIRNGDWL

For `CO[C@H]1/C=C/O[C@@]2(C)Oc3c(C)c(O)c4c(O)c(c(/C=N/N5CCN(C)CC5)c(O)c4c3C2=O)NC(=O)/C(C)=C\C=C\[C@H](C)[C@H](O)[C@@H](C)[C@@H](O)[C@@H](C)[C@H](OC(C)=O)[C@@H]1C` [rifampin], the MIC in assay [1] (setting [14]) was 16 to 32 µg/mL (≈ 19.4 to 38.9 µM); in assay [1] (setting [15]), 8 µg/mL (≈ 9.72 µM); in assay [2] (setting [14]), more than 16400 µg/mL; in assay [2] (setting [15]), 8 µg/mL (≈ 9.72 µM); in assay [4] (ATCC25922, colonies isolated from the rifampin containing plates after therapy), more than 256 µg/mL; in [4] (ATCC25922, parent strain) it was 8 µg/mL (≈ 9.72 µM). In addition, the MIC is 8 µg/mL (≈ 9.72 µM) in assay [7] (Escherichia coli, ATCC25922, parent strain, read-out: MIC) and 8.0 µg/mL (≈ 9.72 µM) in assay [7] (colonies after therapy). Further, the “CFU/Thigh, Media (outcome of mice)” value in assay [3] was “mice dead”. For the same compound, the “colonies on rifampin containing plates” value in assay [5] is reported as “no colonies grew”; in assay [8], “large number”. In addition, the “effect on number of ciprofloxacin resistant colonies” value in assay [6] (4 mg/mL rifampicin in PBS, four days, 37° C., plated on 35 ng/mL ciprofloxacin) is given as “no effect”. In addition, the “effect on number of ciprofloxacin resistant cells” value in assay [6] (12 mg/mL rifampicin in PBS, four days, 37° C., plated on 35 ng/mL ciprofloxacin) was “dramatic increase”; in [6] (36 mg/mL rifampicin in PBS, four days, 37° C., plated on 35 ng/mL ciprofloxacin) it was “dramatic increase”. Moreover, in assay [6] (umuDC deletion stain, 12 or 36 mg/mL rifampicin), the “effect on number of ciprofloxacin resistant cells in umuDC deletion strain” value is listed as “essentially completely lost”.
With VAAGEPL [peptide 3], the “inhibition of LexA's autocleavage” value in assay [9] is on record as “inhibition”.
Regarding `O=C(O)c1cn(C2CC2)c2cc(N3CCNCC3)c(F)cc2c1=O` [ciprofloxacin], the MIC in assay [10] (MG1655, read-out: ciprofloxacin MIC, strain lexA (S119A), WT gyrA) was 0.03 µg/mL; in assay [10] (MG1655, read-out: ciprofloxacin MIC, strain lexA (S119A), gyrA S83L), 0.35 µg/mL; in [10] (MG1655, read-out: ciprofloxacin MIC, strain lexA (S119A), gyrA S83Δ), 0.25 µg/mL; in [10] (MG1655, read-out: ciprofloxacin MIC, strain ΔdinB, WT gyrA), 0.035 µg/mL; in [10] (MG1655, read-out: ciprofloxacin MIC, strain ΔdinB, gyrA S83L), 0.45 µg/mL; in assay [10] (MG1655, read-out: ciprofloxacin MIC, strain ΔdinB, gyrA S83Δ), 0.25 µg/mL. Also, the MIC in [10] (MG1655, read-out: ciprofloxacin MIC, strain ΔdinB, ΔumuDC, WT gyrA) is 0.035 µg/mL; in assay [10] (MG1655, read-out: ciprofloxacin MIC, strain ΔdinB, ΔumuDC, gyrA S83L), 0.45 µg/mL; in assay [10] (MG1655, read-out: ciprofloxacin MIC, strain ΔdinB, ΔumuDC, gyrA S83Δ), 0.25 µg/mL; in assay [10] (MG1655, read-out: ciprofloxacin MIC, strain ΔlacZ, WT gyrA), 0.035 µg/mL; in assay [10] (MG1655, read-out: ciprofloxacin MIC, strain ΔlacZ, gyrA S83L) it was 0.45 µg/mL; in assay [10] (MG1655, read-out: ciprofloxacin MIC, strain ΔlacZ, gyrA S83Δ), 0.25 µg/mL. Moreover, the MIC came out at 0.03 µg/mL in [10] (MG1655, read-out: ciprofloxacin MIC, strain ΔpolB, WT gyrA); 0.45 µg/mL in [10] (MG1655, read-out: ciprofloxacin MIC, strain ΔpolB, gyrA S83L); 0.25 µg/mL in assay [10] (MG1655, read-out: ciprofloxacin MIC, strain ΔpolB, gyrA S83Δ); 0.025 µg/mL in assay [10] (MG1655, read-out: ciprofloxacin MIC, strain ΔpolB, ΔdinB, WT gyrA); 0.45 µg/mL in [10] (MG1655, read-out: ciprofloxacin MIC, strain ΔpolB, ΔdinB, gyrA S83L); 0.25 µg/mL in [10] (MG1655, read-out: ciprofloxacin MIC, strain ΔpolB, ΔdinB, gyrA S83Δ). The MIC is 0.025 µg/mL in [10] (MG1655, read-out: ciprofloxacin MIC, strain ΔpolB, ΔdinB, ΔumuDC, WT gyrA); 0.45 µg/mL in assay [10] (MG1655, read-out: ciprofloxacin MIC, strain ΔpolB, ΔdinB, ΔumuDC, gyrA S83L); 0.25 µg/mL in [10] (MG1655, read-out: ciprofloxacin MIC, strain ΔpolB, ΔdinB, ΔumuDC, gyrA S83Δ); 0.025 µg/mL in [10] (MG1655, read-out: ciprofloxacin MIC, strain ΔpolB, ΔumuDC, WT gyrA); 0.45 µg/mL in [10] (MG1655, read-out: ciprofloxacin MIC, strain ΔpolB, ΔumuDC, gyrA S83L); 0.25 µg/mL in assay [10] (MG1655, read-out: ciprofloxacin MIC, strain ΔpolB, ΔumuDC, gyrA S83Δ). Besides, the MIC is 0.035 µg/mL in assay [10] (MG1655, read-out: ciprofloxacin MIC, strain ΔrecD, WT gyrA); 0.35 µg/mL in assay [10] (MG1655, read-out: ciprofloxacin MIC, strain ΔrecD, gyrA S83L); 0.25 µg/mL in assay [10] (MG1655, read-out: ciprofloxacin MIC, strain ΔrecD, gyrA S83Δ); 0.035 µg/mL in assay [10] (MG1655, read-out: ciprofloxacin MIC, strain ΔumuDC, WT gyrA); 0.45 µg/mL in assay [10] (MG1655, read-out: ciprofloxacin MIC, strain ΔumuDC, gyrA S83L); 0.25 µg/mL in assay [10] (MG1655, read-out: ciprofloxacin MIC, strain ΔumuDC, gyrA S83Δ). Besides, the “Colonies isolated on plates containing ciprofloxacin” value in assay [11] (day 1 post infection, plates 20 ng/mL) came out at 3; in assay [11] (day 1 post infection, plates 80 ng/mL), 1; in assay [11] (day 2 post infection, plates 20 ng/mL) it was 2; in assay [11] (day 2 post infection, plates 80 ng/mL), 0. For the same compound, the “'second step' mutation rate” value is recorded as 5.5 (±4.9)×10^−7 mutants/(cell day) in [12] and 1.9 (±0.21)×10^−4 mutants/(cell day) in assay [13].
